Results reported in patent US12448383B2, “Compounds and methods for treatment of viral infections” (priority 2022, dated 2025).
Read-outs that look alike come from different tables or passages of the source.

Experiments:
[1] = test system: SARS Coronavirus 2 recombinant with NanoLuc (SARS-CoV2-NLuc) in A549-hACE2 cells; test: organism not typed; assay type: cell-based
[2] = test system: Respiratory syncytial virus recombinant with luciferase (RSV-Luc5) in Normal Human Bronchial Epithelial (NHBE) cells; test: microbe, parasite or virus in culture; assay type: cell-based
[3] = CC50 MT4 cytotoxicity (Cell-Titer Glo); assay type: cell-based; conditions: human
In short: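 Uninfected MT-4 and HEp-2 cells cultured 4-5 days at 37° C with 3-fold serially diluted compound (15 nM to 100,000 nM). Viability read by Cell-Titer Glo luminescence; untreated and 2 μM puromycin wells set 100% and 0%. CC50 from non-linear regression as concentration reducing viability by 50%.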

[4] = GI S9 stability - no PMSF; assay type: in vitro ADME; conditions: pH 7.4; human intestinal S9, PMSF-free; read-out: GIS9-HUMAN-NoPMSF T1/2
In short: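 Compounds were incubated at 2 μM with PMSF-free intestinal S9 (1 mg/mL protein) in 100 mM PBS, pH 7.4, sampling at 6 time points over 120 min. Parent disappearance and formation of the nucleoside metabolite Reference Compound A were quantified by LC-MS (Q-Exactive) using analyte/internal standard peak area ratios.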

Plasma stability = assay type: in vitro ADME; parameters: unit not given here; conditions: 37° C., 2 μM substrate
In short: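 Reaction mixture was sampled at 0.05, 0.5, 1, 2, 3 and 4 hr into quench solution containing internal standard, then centrifuged and diluted with water. Remaining analyte was measured by LC-MS on a Q-Exactive using a formic acid/acetonitrile gradient, with 5 ppm mass tolerance.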

[5] = Thermodynamic solubility in pH7 buffered solution; conditions: 50 mM phosphate buffer pH7, 150 mM NaCl, ambient temperature, 24 hours
In short: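 Solid shaken 24 h at ambient temperature in 50 mM phosphate buffer pH7 with 150 mM NaCl. Supernatant diluted in 30:70 acetonitrile:water and quantified by UPLC-UV.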

[6] = Stability in pH7 buffered solution; assay type: physicochemical; conditions: pH7 phosphate buffer, 40° C., Table N2
In short: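 Compounds diluted from 1 mg/mL acetonitrile stock to 50 μg/mL in 50 mM phosphate buffer with 150 mM NaCl at pH2 or pH7, held at 40° C. for 24 hrs. UPLC sampling at 0, 3, 6, 9, 12 hrs, plus 24 hrs from oven-stored duplicate; reported as % area normalized of compound peak.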

CC12CCC(C1)C(C)(C)C2OC(=O)OC[C@H]1O[C@@](C#N)(c2ccc3c(N)ncnn23)[C@H](O)[C@@H]1O (mixture of isomers) [Compound 48, ((2R,3S,4R,5R)-5-(4-aminopyrrolo[2,1-f][1,2,4]triazin-7-yl)-5-cyano-3,4-dihydroxytetrahydrofuran-2-yl)methyl (1,3,3-trimethylbicyclo[2.2.1]heptan-2-yl) carbonate]
EC50 ([1]; 48 h, read-out: SARS-CoV2 EC50): 14.2 µM
EC50 ([2]; 72 h, read-out: RSV NHBE EC50): 0.167 µM
CC50 [3]: 25.5 µM
half-life at 2 µM [4]: 10.1 min
STA Human Plasma 37 (Plasma stability): 1584
Sol pH 7 [5]: 0.19
pH 7 Stability 24 h % AN [6]: 99 % AN

CC(C)OC(=O)OC[C@H]1O[C@@](C#N)(c2ccc3c(N)ncnn23)[C@H](O)[C@@H]1O [Compound 4, [(2R,3S,4R,5R)-5-(4-aminopyrrolo[2,1-f][1,2,4]triazin-7-yl)-5-cyano-3,4-dihydroay-tetrahydrofuran-2-yl]methyl isopropyl carbonate]
EC50 ([1]; 48 h, read-out: SARS-CoV2 EC50): 2.67 µM
EC50 ([2]; 72 h, read-out: RSV NHBE EC50): 0.774 µM
CC50 [3]: > 50 µM
half-life at 2 µM [4]: 0.903 min
STA Human Plasma 37 (Plasma stability): 107.92
Sol pH 7 [5]: 1.85
pH 7 Stability 24 h % AN [6]: 97 % AN

CCOC(=O)OC[C@H]1O[C@@](C#N)(c2ccc3c(N)ncnn23)[C@H](O)[C@@H]1O [Compound 6, ((2R,3S,4R,5R)-5-(4-aminopyrrolo[2,1-f][1,2,4]triazin-7-yl)-5-cyano-3,4-dihydroxytetrahydrofuran-2-yl)methyl ethyl carbonate]
EC50 ([1]; 48 h, read-out: SARS-CoV2 EC50): 4.42 µM
EC50 ([2]; 72 h, read-out: RSV NHBE EC50): 1.01 µM
CC50 [3]: > 50 µM
half-life at 2 µM [4]: 4.08 min
STA Human Plasma 37 (Plasma stability): 55.852
Sol pH 7 [5]: 3.02
pH 7 Stability 24 h % AN [6]: 100 % AN

CC(C)(C)OC(=O)OC[C@H]1O[C@@](C#N)(c2ccc3c(N)ncnn23)[C@H](O)[C@@H]1O [Compound 46, ((2R,3S,4R,5R)-5-(4-aminopyrrolo[2,1-f][1,2,4]triazin-7-yl)-5-cyano-3,4-dihydroxytetrahydrofuran-2-yl)methyl tert-butyl carbonate]
EC50 ([1]; 48 h, read-out: SARS-CoV2 EC50): 4.3 µM
EC50 ([2]; 72 h, read-out: RSV NHBE EC50): 1.18 µM
CC50 [3]: > 50 µM
half-life at 2 µM [4]: 145 min
STA Human Plasma 37 (Plasma stability): 553.13
Sol pH 7 [5]: 0.45
pH 7 Stability 24 h % AN [6]: 8 % AN

CC1(OC(=O)OC[C@H]2O[C@@](C#N)(c3ccc4c(N)ncnn34)[C@H](O)[C@@H]2O)CCCCC1 [Compound 47, ((2R,3S,4R,5R)-5-(4-aminopyrrolo[2,1-f][1,2,4]triazin-7-yl)-5-cyano-3,4-dihydroxytetrahydrofuran-2-yl)methyl (1-methylcyclohexyl) carbonate]
EC50 ([1]; 48 h, read-out: SARS-CoV2 EC50): 3.36 µM
EC50 ([2]; 72 h, read-out: RSV NHBE EC50): 1.48 µM
CC50 [3]: > 50 µM
half-life at 2 µM [4]: 151 min
STA Human Plasma 37 (Plasma stability): 1584
Sol pH 7 [5]: 0.1
pH 7 Stability 24 h % AN [6]: 3 % AN

CC(C)(OC(=O)OC[C@H]1O[C@@](C#N)(c2ccc3c(N)ncnn23)[C@H](O)[C@@H]1O)c1ccncc1 [Compound 49, ((2R,3S,4R,5R)-5-(4-aminopyrrolo[2,1-f][1,2,4]triazin-7-yl)-5-cyano-3,4-dihydroxytetrahydrofuran-2-yl)methyl (2-(pyridin-4-yl)propan-2-yl) carbonate]
EC50 ([1]; 48 h, read-out: SARS-CoV2 EC50): 14.3 µM
EC50 ([2]; 72 h, read-out: RSV NHBE EC50): 17.7 µM
CC50 [3]: > 50 µM
half-life at 2 µM [4]: 522 min
STA Human Plasma 37 (Plasma stability): 1584
Sol pH 7 [5]: 2.03
pH 7 Stability 24 h % AN [6]: 94 % AN

CC1(C)[C@@H]2CC[C@@]1(C)[C@@H](OC(=O)OC[C@H]1O[C@@](C#N)(c3ccc4c(N)ncnn34)[C@H](O)[C@@H]1O)C2 [Compound 51, ((2R,3S,4R,5R)-5-(4-aminopyrrolo[2,1-f][1,2,4]triazin-7-yl)-5-cyano-3,4-dihydroxytetrahydrofuran-2-yl)methyl ((1R,2S,4R)-1,7,7-trimethylbicyclo[2.2.1]heptan-2-yl) carbonate]
EC50 ([1]; 48 h, read-out: SARS-CoV2 EC50): 7.83 µM
EC50 ([2]; 72 h, read-out: RSV NHBE EC50): 0.727 µM
CC50 [3]: 38.3 µM
half-life at 2 µM [4]: 11 min
STA Human Plasma 37 (Plasma stability): 1366.8
Sol pH 7 [5]: 0.08
pH 7 Stability 24 h % AN [6]: 97 % AN

CC(C)C(=O)O[C@H]1[C@@H](OC(=O)C(C)C)[C@](C#N)(c2ccc3c(N)ncnn23)O[C@@H]1COC(=O)OC(C)(C)C [Compound 58, (2R,3R,4R,5R)-2-(4-aminopyrrolo[2,1-f][1,2,4]triazin-7-yl)-5-(((tert-butoxycarbonyl)oxy)methyl)-2-cyanotetrahydrofuran-3,4-diyl bis(2-methylpropanoate)]
EC50 ([1]; 48 h, read-out: SARS-CoV2 EC50): 2.24 µM
EC50 ([2]; 72 h, read-out: RSV NHBE EC50): 1.07 µM
CC50 [3]: 27.1 µM
half-life at 2 µM [4]: 1.19 min
STA Human Plasma 37 (Plasma stability): 1584
Sol pH 7 [5]: 0.02
pH 7 Stability 24 h % AN [6]: 7 % AN

CC(C)OC(=O)OC[C@H]1O[C@@](C#N)(c2ccc3c(N)ncnn23)[C@H](OC(=O)C(C)C)[C@@H]1OC(=O)C(C)C [Compound 59, (2R,3R,4R,5R)-2-(4-aminopyrrolo[2,1-f][1,2,4]triazin-7-yl)-2-cyano-5-(((isopropoxycarbonyl)oxy)methyl)tetrahydrofuran-3,4-diyl bis(2-methylpropanoate)]
EC50 ([1]; 48 h, read-out: SARS-CoV2 EC50): 4.16 µM
EC50 ([2]; 72 h, read-out: RSV NHBE EC50): 0.811 µM
CC50 [3]: > 50 µM
half-life at 2 µM [4]: 0.869 min
STA Human Plasma 37 (Plasma stability): 84.318
Sol pH 7 [5]: 0.01
pH 7 Stability 24 h % AN [6]: 93 % AN

CC(=O)O[C@H]1[C@@H](OC(C)=O)[C@](C#N)(c2ccc3c(N)ncnn23)O[C@@H]1COC(=O)OC(C)C [Compound 65, (2R,3R,4R,5R)-2-(4-aminopyrrolo[2,1-f][1,2,4]triazin-7-yl)-2-cyano-5-(((isopropoxycarbonyl)oxy)methyl)tetrahydrofuran-3,4-diyl diacetate]
EC50 ([1]; 48 h, read-out: SARS-CoV2 EC50): 3.64 µM
EC50 ([2]; 72 h, read-out: RSV NHBE EC50): 0.185 µM
CC50 [3]: > 50 µM
half-life at 2 µM [4]: 0.621 min
STA Human Plasma 37 (Plasma stability): 14.9
Sol pH 7 [5]: 0.045
pH 7 Stability 24 h % AN [6]: 80 % AN

COC(=O)OC[C@H]1O[C@@](C#N)(c2ccc3c(N)ncnn23)[C@H](OC(C)=O)[C@@H]1OC(C)=O [Compound 128, (2R,3R,4R,5R)-2-(4-aminopyrrolo[2,1-f][1,2,4]triazin-7-yl)-2-cyano-5-(((methoxycarbonyl)oxy)methyl)tetrahydrofuran-3,4-diyl diacetate]
EC50 ([1]; 48 h, read-out: SARS-CoV2 EC50): 7.23 µM
EC50 ([2]; 72 h, read-out: RSV NHBE EC50): 2.04 µM
CC50 [3]: > 50 µM
half-life at 2 µM [4]: 0.59 min
STA Human Plasma 37 (Plasma stability): 9.735
Sol pH 7 [5]: 1.42
pH 7 Stability 24 h % AN [6]: 78 % AN

CCOC(=O)OC[C@H]1O[C@@](C#N)(c2ccc3c(N)ncnn23)[C@H](OC(C)=O)[C@@H]1OC(C)=O [Compound 129, (2R,3R,4R,5R)-2-(4-aminopyrrolo[2,1-f][1,2,4]triazin-7-yl)-2-cyano-5-(((ethoxycarbonyl)oxy)methyl)tetrahydrofuran-3,4-diyl diacetate]
EC50 ([1]; 48 h, read-out: SARS-CoV2 EC50): 5.83 µM
EC50 ([2]; 72 h, read-out: RSV NHBE EC50): 0.673 µM
CC50 [3]: > 50 µM
half-life at 2 µM [4]: 0.623 min
STA Human Plasma 37 (Plasma stability): 3
Sol pH 7 [5]: 0.72
pH 7 Stability 24 h % AN [6]: 78 % AN

CC(C)OC(=O)Nc1ncnn2c([C@]3(C#N)O[C@H](COC(=O)OC(C)C)[C@@H](O)[C@H]3O)ccc12 [Compound 137, isopropyl (7-((2R,3R,4S,5R)-2-cyano-3,4-dihydroxy-5-(((isopropoxycarbonyl)oxy)methyl)tetrahydrofuran-2-yl)pyrrolo[2, i-f][1,2,4]triazin-4-yl)carbamate]
EC50 ([1]; A549, read-out: EC50 SARS CoV2 NanoLuc A549 384): > 50 µM
EC50 ([2]; read-out: EC50 RSVFluc-NHBE 384 V2): 9.52 µM
CC50 [3]: > 50 µM
half-life at 2 µM [4]: 8.05 min
STA Human Plasma 37 (Plasma stability): 676.3
Sol pH 7 [5]: 0.13
pH 7 Stability 24 h % AN [6]: 97 % AN
